This is an account of results in patent publication US20050085447A1, “Pyrido[3,4-d]pyrimidine derivatives as matrix metalloproteinase-13 inhibitors” (Warner-Lambert Company LLC, priority 2003, published 2005).

SMILES strings stand for the structures.

One data set concerns the target T1, MMP-7 full-length (Homo sapiens, UniProt P09237).
T1 construct: MMP-3 catalytic domain, MMP-7 full-length, MMP-8 full-length
T1 sequence (P09237 95-267): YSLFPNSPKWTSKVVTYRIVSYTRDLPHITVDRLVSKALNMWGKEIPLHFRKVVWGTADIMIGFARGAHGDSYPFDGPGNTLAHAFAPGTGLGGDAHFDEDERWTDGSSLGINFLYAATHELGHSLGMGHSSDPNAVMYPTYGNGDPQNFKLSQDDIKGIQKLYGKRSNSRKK
Briefly: Thiopeptolide substrate hydrolysis inhibition assay, MMP-7 full-length. In kind it is biochemical. The note with it: full-length enzyme; read-out: MMP-7FL IC50. From the text: The assay methods of Biological Examples 1-4 measure the amount by which a test compound reduces the hydrolysis of a thiopeptolide substrate catalyzed by a matrix metalloproteinase enzyme or catalytic domain thereof. It has been shown previously by Ye Qi-Zhuang, Hupe D., and Johnson L. (Current Medicinal Chemistry, 1996;3:407-418) that inhibitor activity against a catalytic domain of an MMP is predictive of the inhibitor activity against the respective full-length MMP enzyme. The methods described below for the inhibition of MMP-13 may also be adapted and used to determine the ability of the compounds of Formula I to inhibit other matrix metalloproteases such as MMP-1, MMP-2, MMP-3, MMP-7, MMP-8, MMP-9, MMP-12, MMP-14, MMP-17, and the like.
Thiopeptolide substrates show virtually no decomposition or hydrolysis at or below neutral pH in the absence of a matrix metalloproteinase enzyme. A typical thiopeptolide substrate commonly utilized for assays is Ac-Pro-Leu-Gly-thioester-Leu-Leu-Gly-OEt. A 100 μL assay mixture will contain 50 mM of N-2-hydroxyethylpiperazine-N′-2-ethanesulfonic acid buffer (“HEPES,” pH 7.0), 10 mM CaCl2, 100 μM thiopeptolide substrate, and 1 mM 5,5′-dithio-bis-(2-nitro-benzoic acid) (DTNB). […] The change in absorbance at 405 nm is monitored on a Thermo Max microplate reader (molecular Devices, Menlo Park, Calif.) at room temperature (22° C.). The calculation of the amount of hydrolysis of the thiopeptolide substrate is based on E412=13600 M^−1 cm^−1 for the DTNB-derived product 3-carboxy-4-nitrothiophenoxide. Assays are carried out with and without matrix metalloproteinase inhibitor compounds, and the amount of hydrolysis is compared for a determination of inhibitory activity of the test compounds.
Test compounds were evaluated at various concentrations in order to determine their respective IC50 values, the micromolar concentration of compound required to cause a 50% inhibition of catalytic activity of the respective enzyme.
Some representative compounds of Formula I have been evaluated for their ability to inhibit MMP-13, MMP-1FL, MMP-3CD, MMP-7FL, MMP-8FL, MMP-9FL, MMP-12CD, MMP-14CD, and/or MMP-17CD, wherein FL means full-length enzyme and CD means a catalytic domain of the full-length enzyme. Test compounds can be evaluated at various concentrations in order to determine their respective IC50 values, the micromolar concentration of compound required to cause a 50% inhibition of the hydrolytic activity of the respective enzyme.
Certain compounds of Formula I have also been assayed with MMP-1 full-length, MMP-3 catalytic domain, MMP-7 full-length, MMP-8 full-length, MMP-9 full-length, MMP-12 catalytic domain, MMP-14 catalytic domain, and MMP-17 catalytic domain. […] In Biological Table 2, the compound example numbers for the Compound Examples are indicated in the column labelled “Ex. No.”

The nature of data set [1]: Pharmacokinetics in Sprague-Dawley rats (single IV or oral dose). In kind it is in vivo, rat. From the text: For comparison purposes, a reference compound was separately characterized according to its pharmacokinetics properties except AUC in a similar manner. The reference compound (“Reference Compound 1”) was the compound of Example 188 of PCT International Patent Application Publication number WO 02/064572 A1, which is also described in PCT International Patent Application Publication number WO 02/064080 A2 in Table IVb on page 76, 5th species from the top. […] Reference Compound 1 is named 4-[6-(4-methoxy-benzylcarbamoyl)- 1 -methyl-2,4-dioxo- 1,4-dihydro-2H-pyrido[3,4-d]pyrimidin-3-ylmethyl]-benzoic acid, and has the structure drawn below: [drawing 98]

On to `COc1ccc(CNC(=O)c2cc3c(=O)n(Cc4ccc(C(=O)O)cc4)cnc3cn2)cc1` [Compound Example 1, 4-[6-(4-methoxy-benzylcarbamoyl)-4-oxo-4H-pyrido[3,4-d]pyrimidin-3-ylmethyl]-benzoic acid], for which, at MMP-7 full-length, the half-inhibitory concentration (IC50) was greater than 100 µM. For the same molecule, in data set [1] (rat, blood, Sprague-Dawley rats, single 5 mg/kg intravenous dose, read-out: IV CL), the clearance turned out to be 7.1 mL/min/kg. In addition, in data set [1] (rat, blood, Sprague-Dawley rats, single 5 mg/kg intravenous dose, read-out: IV T1/2 (converted)), the half-life was 2.1 h. Moreover, the “PO AUC (ng/hr/mL)” value in data set [1] (rats, single 5 mg/kg oral dose) is listed as 3,750 ng/hr/mL.

In general, IC50 refers to the concentration needed to halve the response being measured.
